pEC50: −log10 of the molar value.
Assays:
Format in all cases: functional
Oryctolagus cuniculus [1] = species: Oryctolagus cuniculus; test: (§1) Alpha-1-adrenergic potency measured in the isolated rabbit ear artery
Oryctolagus cuniculus [2] = species: Oryctolagus cuniculus; test: as §1; remark: listed apart in the source
Oryctolagus cuniculus [3] = test: Blockade of the constrictor response to exogenously administered L-norepinephrine

SMILES | pEC50 (Oryctolagus cuniculus [1]) | pEC50 (Oryctolagus cuniculus [2]) | KB (Oryctolagus cuniculus [3]) [nM]
COc1ccc(SC)c2c1CC(N)CC2 (centres undefined) | 7.22 | 8.05 | 
COc1cc2nc(N3CCN(C(=O)c4ccco4)CC3)nc(N)c2cc1OC [PRAZOSIN] |  |  | 2.7
COC(=O)[C@@H]1[C@H]2C[C@H]3c4[nH]c5ccccc5c4CCN3C[C@@H]2CC[C@@H]1O [YOHIMBINE] |  |  | 4000
